What was measured:
[1] = test system: Cullin 2 (CUL2) neddylation; assay: Immunoblot for Cullin 2 (CUL2) neddylation in ACH2 cells; type: cell-based; parameters: dose or concentration left out as unconfirmed; conditions: MLN, with and without TNFa reactivation
HIV = assay: Infectivity of HIV reactivated from ACH2 cells, TZM-bl reporter cell luciferase assay; type: cell-based; conditions: ACH2 cells treated with MLN 100 nM or 200 nM before and during LRA (TNFa, PMAi, JQ1), vs DMSO, p24-normalized
Description: (§1) (B) MLN treatment of ACH2 cells before and during TNFa provirus reactivation increases the amount of A3G incorporated into virions, a strong candidate mechanism for decreased infectivity shown in (A). Virions from ACH2 cell supernatant were pelleted over a 20% sucrose cushion. […] A3G signal (black bars) and p24 signal (grey bars) from n=3 experiments are quantified on the right (Panel 2 in B).
Virus infectivity was determined by infecting TZM-bl reporter cell line with p24-equivalent amounts of culture supernatant fluid (e.g., normalized to the same p24 amount, as a surrogate for inoculating the same number of virions) from cells pretreated with MLN or DMSO control and reactivated by the 3 LRAs). Supernatant infectivity was measured via luciferase activity in the form of […] (RFU) where higher RFU signifies greater infectivity. Average RFU values were normalized to the control condition (LRA alone without MLN treatment) such that maximum infectivity seen in that control condition is set to 100%.

[2] = test system: A3G incorporated into virions; assay: Immunoblot of A3G in virions pelleted from ACH2 supernatant; type: cell-based, HIV; conditions: ACH2 cells; MLN before and during TNFa reactivation; immunoblot of viral pellets, n=3
Excerpt: as §1
Virions from ACH2 cell supernatant were pelleted over a 20% sucrose cushion. […] A3G signal (black bars) and p24 signal (grey bars) from n=3 experiments are quantified on the right (Panel 2) in FIG. 3B.

A3G [3] = assay: A3G LMM/HMM distribution, sucrose density gradient and immunoblot, H9 cells; type: cell-based; conditions: 200 nM MLN for 4 or 6 days
Description: (§2) A3G low molecular mass forms (LMM) (fractions 1-5) and HMM complexes (fractions 7-12) are visualized by immunoblotting of fractions collected after density gradient centrifugation of a 5-40% sucrose gradient. […] (B) CD4+CD45RO+ memory T cells were isolated from healthy donors; cells were then stimulated with CD3/28 Abs (*) and cultured for 4 days with DMSO, 100 nM, or 200 nM MLN before density gradient centrifugation and immunoblotting of gradient fractions.

A3G [4] = assay: A3G LMM/HMM distribution, sucrose density gradient and immunoblot, CD4+CD45RO+ memory T cells; type: cell-based; conditions: CD4+CD45RO+ memory T cells from healthy donors, CD3/28 stimulated; 4 days, 100 nM or 200 nM MLN vs DMSO
Description: as §2

HIV capsid antigen (p24) [5] = assay: Extracellular p24 ELISA of ACH2 culture supernatant after provirus reactivation; type: cell-based; conditions: ACH2 cells; MLN before and during LRAs (TNFa 10 ng/mL, PMA/i, JQ1), n=3 each
Description: (§3) MLN decreases reactivation of latent provirus, as shown in VIF+, replication-competent provirus, from the latently infected ACH2 T cell line based on HIV capsid p24 amounts in cell culture supernatant fluid and intracellularly after 3 different LRAs: tumor necrosis factor alpha (TNFa) at 10 ng/mL; PMA/ionomycin (PMAi) at 405 pM phorbol 12-myristate 13-acetate (PMA) and 6.7 nM ionomycin (eBiosciences™ stimulation cocktail); and JQ1 at 100 nM (FIGS. 5 and 6). […] MLN reduces intracellular p24 production from ACH2 1 cells treated with TNFa, PMAi, and JQ1, compared to DMSO control (FIG. 6A). […] HIV promoter-driven RNA is also shown to be decreased by MLN before/during TNFa or PMAi (FIG. 7). […] ACH2 cells were pretreated for 6 hours with DMSO, or MLN at […], and then reactivated with 10 ng/mL TNFa or PMA/ionomycin.

HIV capsid antigen (p24) [6] = assay: Immunoblot of p24 in reactivated virions pelleted from ACH2 supernatant; type: cell-based; conditions: LRA-exposed ACH2 cells; MLN vs control
Description: as §3

HIV capsid antigen (p24) [7] = assay: Immunoblot of p24 in reactivated virions pelleted from J-Lat 6.3 supernatant; type: cell-based; conditions: LRA-exposed J-Lat 6.3 cells; MLN vs control
intracellular p24 [8] = assay: Intracellular p24 production in ACH2 cells exposed to LRAs; type: cell-based, HIV; conditions: ACH2 cells treated with TNFa (n=4), PMA/i (n=4), JQ1 (n=3); vs DMSO control
Excerpt: (§4) (B) MLN reduces intracellular p24 production from J-Lat 6.3 cells exposed to TNFa, as well as from ACH2 cells exposed to TNFa. […] (C) Six hour treatment of J-Lat cells (both J-Lat 6.3 and J-Lat 11.1) with MLN before and during LRA exposure reduces HIV promoter-driven GFP expression after exposure to TNFa, PMAi and JQ1.
as §3

intracellular p24 [9] = assay: Intracellular p24 production in J-Lat 6.3 cells exposed to TNFa; type: cell-based, HIV
Excerpt: as §4

[10] = test system: HIV promoter-driven GFP expression; assay: HIV promoter-driven GFP expression in J-Lat 6.3 cells; type: cell-based; conditions: six hour MLN treatment before and during LRA exposure (TNFa, PMAi, JQ1)
Excerpt: as §4, §3

[11] = test system: HIV promoter-driven GFP expression; assay: HIV promoter-driven GFP expression in J-Lat 11.1 cells; type: cell-based; conditions: six hour MLN treatment before and during LRA exposure (TNFa, PMAi, JQ1)
Excerpt: as §4, §3

HIV gag RNA = HIV gag RNA RT-qPCR in ACH2 cells; type: cell-based; conditions: MLN at before and during TNFa 10 ng/mL or PMA/ionomycin, 48 hours after reactivation, vs DMSO
Description: Gag RNA is reduced in ACH2 cells as measured by RT-qPCR 48 hours after reactivation. ACH2 cells were treated with either DMSO or MLN (at […]) before and during exposure to either 10 ng/mL TNFa (plot on left) or 405 pM PMA and 6.7 nM ionomycin (eBiosciences stimulation cocktail) (plot on right); 4 separate ACH2 cell cultures were used for each plot's experiment.
as §3

ACH2 cells = assay: Annexin V / SYTOX Green apoptosis flow cytometry in ACH2 cells; type: cell-based; conditions: 200 nM MLN 6 hours before and during 10 ng/mL TNFa, 16 hours post-TNFa
Description: (§5) ACH2 cells were pretreated for 6 hours with 200 nM MLN prior to provirus reactivation with 10 ng/mL TNFa. 16 hours post-TNFa addition cells were collected; apoptosis was measured via flow cytometry by staining for Annexin V and SYTOX Green DNA intercalant. […] Data was collected 24 hours after TNFa addition. (C) CD4+ T cells from 3 healthy donors were activated for 48 hrs with anti-CD3/CD28 antibodies. Cells were then treated with 200 nM of MLN and apoptosis was measured after 6, 16, and 24 hrs of drug treatment using flow cytometry. * p<0.05 *** p=0.0002 (D) Expression of RNA encoding cell cycling and apoptotic targets assessed before in ACH2 cells was determined in primary CD4 T cells via RT-qPCR. Gene expression was normalized to 18S control ** p=0.0033 **** p<0.0001 A&B) n=3 donors.
(§6) ACH2 cells were treated with 200 nM MLN for 6 hours before and then during reactivation with 10 ng/mL TNFa. 16 hours post-TNFa addition, cells were collected and percentage of apoptotic cells increased with MLN treatment upon reactivation (FIG. 8A).

NOXA, PUMA, p21, p53 RNA = assay: RT-qPCR for apoptotic targets and cell cycle indicators in ACH2 cells; type: cell-based; conditions: 200 nM MLN before and during 10 ng/mL TNFa, 24 hours after TNFa
Description: as §5, §6

primary CD4+ T cells = assay: Apoptosis flow cytometry in anti-CD3/CD28-activated uninfected primary CD4+ T cells; type: cell-based; conditions: uninfected CD4+ T cells from 3 healthy donors, anti-CD3/CD28 activated 48 hrs; 200 nM MLN; at 16 hours
Description: as §5, §6

PUMA, NOXA, p21, p53 RNA = assay: RT-qPCR for apoptotic targets and cell cycle indicators in primary CD4 T cells; type: cell-based; conditions: MLN
Description: as §5, §6

[12] = test system: Cullin RING Ligase (CRL^Vif)-mediated degradation of APOBEC3G (A3G); conditions: ex vivo, de novo HIV infections; previously reported; cited from earlier work

NS(=O)(=O)OC[C@@H]1C[C@@H](n2ccc3c(N[C@H]4CCc5ccccc54)ncnc32)C[C@@H]1O [MLN, pevonedistat]
Cullin 2 (CUL2) neddylation [1]: inhibits | infectivity of HIV in culture supernatant fluid (HIV): less infectious | amount of A3G incorporated into virions [2]: increases | intracellular distribution of A3G (LMM form vs HMM complexes) (A3G [3]): shift to LMM form | intracellular distribution of A3G (LMM form vs HMM complexes) (A3G [4]): shift to LMM form | extracellular p24 antigen in culture supernatant fluid (ELISA) (HIV capsid antigen (p24) [5]): significantly reduced | p24 antigen in pelleted reactivated virions (immunoblot) (HIV capsid antigen (p24) [6]): reduced | p24 antigen in pelleted reactivated virions (immunoblot) (HIV capsid antigen (p24) [7]): reduced | intracellular p24 production (intracellular p24 [8]): significantly reduces | intracellular p24 production (intracellular p24 [9]): reduces | HIV promoter-driven GFP expression [10]: reduces | HIV promoter-driven GFP expression [11]: reduces | HIV gag RNA expression (RT-qPCR) (HIV gag RNA): reduced | percentage of cells dying from apoptosis (Annexin V) (ACH2 cells): increases | p53 RNA expression (NOXA, PUMA, p21, p53 RNA): does not increase | relative expression of RNA encoding NOXA (NOXA, PUMA, p21, p53 RNA): increased | relative expression of RNA encoding PUMA (NOXA, PUMA, p21, p53 RNA): increased | relative expression of RNA encoding p21 (NOXA, PUMA, p21, p53 RNA): increased | apoptosis-mediated cell death (Annexin V) (primary CD4+ T cells): increase | p53 RNA expression (PUMA, NOXA, p21, p53 RNA): did not significantly increase | NOXA gene expression (RT-qPCR) (PUMA, NOXA, p21, p53 RNA; normalized to 18S): increase | PUMA gene expression (RT-qPCR) (PUMA, NOXA, p21, p53 RNA; normalized to 18S): increase | p21 expression (RT-qPCR) (PUMA, NOXA, p21, p53 RNA; normalized to 18S): increase | CRL^Vif-mediated degradation of APOBEC3G (A3G) [12]: block

— patent US20240082250A1, “NEDDYLATION INHIBITION FOR USE IN THE TREATMENT OF HUMAN IMMUNODEFICIENCY VIRUS (HIV) INFECTION” (priority 2022, published 2024)
